Data reported in PubChem BioAssay (NCI).
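Step 1: Grow cells in 96-well plates. Step 2: Expose to compound for 48 hours at 5 concentrations. Step 3: Interpolate endpoints linearly; if unreached, use highest concentration. GI50: concentration for 50% inhibition of growth. TGI denotes the concentration required for complete inhibition of growth.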

Columns and labels:
Experiment in all cases: inhibition of tumour cell growth, NCI panel, 48 h
786-0 renal = test system: 786-0 renal
A549 NSCLC = test system: A549 NSCLC
ACHN renal = test system: ACHN renal
BT-549 breast = test system: BT-549 breast
CAKI-1 renal = test system: CAKI-1 renal
CCRF-CEM leukemia = test system: CCRF-CEM leukemia
COLO 205 colon = test system: COLO 205 colon
DU-145 prostate = test system: DU-145 prostate
EKVX NSCLC = test system: EKVX NSCLC
HCT-116 colon = test system: HCT-116 colon
HCT-15 colon = test system: HCT-15 colon
HL-60(TB) leukemia = test system: HL-60(TB) leukemia
HOP-62 NSCLC = test system: HOP-62 NSCLC
HOP-92 NSCLC = test system: HOP-92 NSCLC
HT29 colon = test system: HT29 colon
IGROV1 ovarian = test system: IGROV1 ovarian
K-562 leukemia = test system: K-562 leukemia
KM12 colon = test system: KM12 colon
LOX IMVI melanoma = test system: LOX IMVI melanoma
M14 melanoma = test system: M14 melanoma
MALME-3M melanoma = test system: MALME-3M melanoma
MCF7 breast = test system: MCF7 breast
MDA-MB-231 breast = test system: MDA-MB-231 breast
MDA-MB-435 = test system: MDA-MB-435
MOLT-4 leukemia = test system: MOLT-4 leukemia
NCI-H226 lung = test system: NCI-H226 lung
NCI-H23 lung = test system: NCI-H23 lung
NCI-H460 lung = test system: NCI-H460 lung
NCI/ADR-RES ovarian = test system: NCI/ADR-RES ovarian
OVCAR-3 ovarian = test system: OVCAR-3 ovarian
OVCAR-4 ovarian = test system: OVCAR-4 ovarian
OVCAR-5 ovarian = test system: OVCAR-5 ovarian
OVCAR-8 ovarian = test system: OVCAR-8 ovarian
PC-3 prostate = test system: PC-3 prostate
RXF 393 renal = test system: RXF 393 renal
SF-268 CNS = test system: SF-268 CNS
SF-295 CNS = test system: SF-295 CNS
SF-539 CNS = test system: SF-539 CNS
SK-MEL-2 melanoma = test system: SK-MEL-2 melanoma
SK-MEL-28 melanoma = test system: SK-MEL-28 melanoma
SK-MEL-5 melanoma = test system: SK-MEL-5 melanoma
SK-OV-3 ovarian = test system: SK-OV-3 ovarian
SN12C renal = test system: SN12C renal
SNB-19 CNS = test system: SNB-19 CNS
SNB-75 CNS = test system: SNB-75 CNS
SR leukemia = test system: SR leukemia
SW-620 colon = test system: SW-620 colon
T-47D breast = test system: T-47D breast
TK-10 renal = test system: TK-10 renal
U251 CNS = test system: U251 CNS
UACC-257 melanoma = test system: UACC-257 melanoma
UACC-62 melanoma = test system: UACC-62 melanoma
UO-31 renal = test system: UO-31 renal

Cn1ncc2c(Sc3ccc(Cl)cc3)ncnc21 was tested, and the GI50 (786-0 renal) was 44.1 µM, the TGI (786-0 renal) was > 100 µM and the GI50 (A549 NSCLC) was 18.8 µM. The TGI (A549 NSCLC) was > 100 µM, the GI50 (ACHN renal) was > 100 µM and the TGI (ACHN renal) was > 100 µM. The GI50 (BT-549 breast) was 27.3 µM, the TGI (BT-549 breast) was > 100 µM and the GI50 (CAKI-1 renal) was 15.4 µM. The TGI (CAKI-1 renal) was > 100 µM, the GI50 (CCRF-CEM leukemia) was 4.8 µM and the TGI (CCRF-CEM leukemia) was > 100 µM. For the same molecule, the GI50 (COLO 205 colon) was > 100 µM, the TGI (COLO 205 colon) was > 100 µM and the GI50 (DU-145 prostate) was 36.1 µM. The TGI (DU-145 prostate) was > 100 µM, the GI50 (EKVX NSCLC) was 10.5 µM and the TGI (EKVX NSCLC) was > 100 µM. The GI50 (HCT-116 colon) was 55.1 µM, the TGI (HCT-116 colon) was > 100 µM and the GI50 (HCT-15 colon) was > 100 µM. The TGI (HCT-15 colon) was > 100 µM, the GI50 (HL-60(TB) leukemia) was 11.3 µM and the TGI (HL-60(TB) leukemia) was > 100 µM. For the same molecule, the GI50 (HOP-62 NSCLC) was 28.8 µM, the TGI (HOP-62 NSCLC) was > 100 µM and the GI50 (HOP-92 NSCLC) was 3.31 µM. The TGI (HOP-92 NSCLC) was > 100 µM, the GI50 (HT29 colon) was > 100 µM and the TGI (HT29 colon) was > 100 µM. For the same molecule, the GI50 (IGROV1 ovarian) was 4.36 µM, the TGI (IGROV1 ovarian) was 49.8 µM and the GI50 (K-562 leukemia) was > 100 µM. For the same molecule, the TGI (K-562 leukemia) was > 100 µM, the GI50 (KM12 colon) was 11.6 µM and the TGI (KM12 colon) was > 100 µM. For the same molecule, the GI50 (LOX IMVI melanoma) was 12 µM, the TGI (LOX IMVI melanoma) was > 100 µM and the GI50 (M14 melanoma) was 93.5 µM. The TGI (M14 melanoma) was > 100 µM, the GI50 (MALME-3M melanoma) was 57.4 µM and the TGI (MALME-3M melanoma) was > 100 µM. For the same molecule, the GI50 (MCF7 breast) was > 100 µM, the TGI (MCF7 breast) was > 100 µM and the GI50 (MDA-MB-231 breast) was 13.2 µM. For the same molecule, the TGI (MDA-MB-231 breast) was > 100 µM, the GI50 (MDA-MB-435) was 22.5 µM and the TGI (MDA-MB-435) was > 100 µM. The GI50 (MOLT-4 leukemia) was 10.3 µM, the TGI (MOLT-4 leukemia) was > 100 µM and the GI50 (NCI-H226 lung) was 36.5 µM. The TGI (NCI-H226 lung) was > 100 µM, the GI50 (NCI-H23 lung) was 15.9 µM and the TGI (NCI-H23 lung) was > 100 µM. The GI50 (NCI-H460 lung) was 21.3 µM, the TGI (NCI-H460 lung) was > 100 µM and the GI50 (NCI/ADR-RES ovarian) was 21.7 µM. For the same molecule, the TGI (NCI/ADR-RES ovarian) was > 100 µM, the GI50 (OVCAR-3 ovarian) was 36.5 µM and the TGI (OVCAR-3 ovarian) was > 100 µM. For the same molecule, the GI50 (OVCAR-4 ovarian) was 36 µM, the TGI (OVCAR-4 ovarian) was > 100 µM and the GI50 (OVCAR-5 ovarian) was > 100 µM. For the same molecule, the TGI (OVCAR-5 ovarian) was > 100 µM, the GI50 (OVCAR-8 ovarian) was > 100 µM and the TGI (OVCAR-8 ovarian) was > 100 µM. For the same molecule, the GI50 (PC-3 prostate) was 7.03 µM, the TGI (PC-3 prostate) was > 100 µM and the GI50 (RXF 393 renal) was 98.4 µM. For the same molecule, the TGI (RXF 393 renal) was > 100 µM, the GI50 (SF-268 CNS) was 7.26 µM and the TGI (SF-268 CNS) was > 100 µM. The GI50 (SF-295 CNS) was 9.58 µM, the TGI (SF-295 CNS) was > 100 µM and the GI50 (SF-539 CNS) was 68.1 µM. The TGI (SF-539 CNS) was > 100 µM, the GI50 (SK-MEL-2 melanoma) was > 100 µM and the TGI (SK-MEL-2 melanoma) was > 100 µM. For the same molecule, the GI50 (SK-MEL-28 melanoma) was > 100 µM, the TGI (SK-MEL-28 melanoma) was > 100 µM and the GI50 (SK-MEL-5 melanoma) was 51.5 µM. For the same molecule, the TGI (SK-MEL-5 melanoma) was > 100 µM, the GI50 (SK-OV-3 ovarian) was 67.9 µM and the TGI (SK-OV-3 ovarian) was > 100 µM. The GI50 (SN12C renal) was 7.37 µM, the TGI (SN12C renal) was > 100 µM and the GI50 (SNB-19 CNS) was 26.9 µM. For the same molecule, the TGI (SNB-19 CNS) was > 100 µM, the GI50 (SNB-75 CNS) was 22.9 µM and the TGI (SNB-75 CNS) was > 100 µM. The GI50 (SR leukemia) was 20.6 µM, the TGI (SR leukemia) was > 100 µM and the GI50 (SW-620 colon) was > 100 µM. For the same molecule, the TGI (SW-620 colon) was > 100 µM, the GI50 (T-47D breast) was 14.4 µM and the TGI (T-47D breast) was > 100 µM. The GI50 (TK-10 renal) was > 100 µM, the TGI (TK-10 renal) was > 100 µM and the GI50 (U251 CNS) was 16.2 µM. For the same molecule, the TGI (U251 CNS) was > 100 µM, the GI50 (UACC-257 melanoma) was > 100 µM and the TGI (UACC-257 melanoma) was > 100 µM. For the same molecule, the GI50 (UACC-62 melanoma) was 77.8 µM, the TGI (UACC-62 melanoma) was > 100 µM and the GI50 (UO-31 renal) was 5.53 µM. The TGI (UO-31 renal) was > 100 µM.
